Each compound was assayed against T1, Wee1 kinase domain (Homo sapiens, UniProt P30291) (assay: Wee1 Kinase Biochemical Assay (ADP-Glo)). Conditions: Wee1 kinase domain, 15 uM ATP, ADP-Glo.
T1 construct: Wee1 kinase domain was purchased from Carna (catalog #05-177); purchased Carna 05-177
T1 sequence (P30291 299-569 limits assumed): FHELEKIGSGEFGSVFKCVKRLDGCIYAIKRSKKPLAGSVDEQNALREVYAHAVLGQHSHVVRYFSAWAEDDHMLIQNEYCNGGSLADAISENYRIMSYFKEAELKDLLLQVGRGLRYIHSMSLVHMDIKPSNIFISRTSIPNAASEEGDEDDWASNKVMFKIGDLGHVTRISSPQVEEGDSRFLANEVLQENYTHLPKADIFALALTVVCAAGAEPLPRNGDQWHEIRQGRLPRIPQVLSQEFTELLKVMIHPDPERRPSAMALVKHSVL
Procedure, shortened: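 Poly(Lys,Tyr 4:1) phosphorylation by the kinase domain is followed as ADP output (ADP-Glo) after 4 h at 25 °C, with ATP at 15 uM. Values are percent inhibition between vehicle and full-inhibition controls.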
Compound C[C@H]1COC(=O)N1c1cccc(N2c3nc(Nc4ccc(N5CCCN(C)CC5)cc4)ncc3[C@]3(C)COC(C)(C)C[C@H]23)n1 (single isomer, unassigned) [Example 298] has an IC50 of 10 to 100 nM.
Work on C[C@H]1COC(=O)N1c1cccc(N2c3nc(Nc4ccc(C(C)(C)C)nc4)ncc3[C@]3(C)COC(C)(C)C[C@H]23)n1 (single isomer, unassigned) [Example 300] yielded an IC50 of 100 to 1000 nM.
C[C@H]1COC(=O)N1c1cccc(N2c3nc(Nc4ccc(C5(C)COC5)cc4)ncc3[C@]3(C)COC(C)(C)C[C@H]23)n1 (single isomer, unassigned) [Example 302] showed an IC50 of 100 to 1000 nM.
With C[C@H]1COC(=O)N1c1cccc(N2c3nc(Nc4ccc([C@@H]5CCN(C)C5)cc4)ncc3[C@]3(C)COC(C)(C)C[C@H]23)n1 (single isomer, unassigned) [Example 304] the IC50 was 10 to 100 nM.
With C[C@H]1COC(=O)N1c1cccc(N2c3nc(Nc4ccc([C@H]5CCN(C)C5)cc4)ncc3[C@]3(C)COC(C)(C)C[C@H]23)n1 (single isomer, unassigned) [Example 307] the IC50 was < 10 nM.
In the case of C[C@H]1COC(=O)N1c1cccc(N2c3nc(Nc4ccc(C5CNC5)cc4)ncc3[C@]3(C)COC(C)(C)C[C@H]23)n1 (single isomer, unassigned) [Example 308], the IC50 is reported as 10 to 100 nM.
C[C@H]1COC(=O)N1c1cccc(N2c3nc(Nc4ccc(C5CN(C)C5)cc4)ncc3[C@]3(C)COC(C)(C)C[C@H]23)n1 (single isomer, unassigned) [Example 309] was tested, and the IC50 was 10 to 100 nM.
Compound C[C@@H]1CN(c2ccc(Nc3ncc4c(n3)N(c3cccc(N5C(=O)OC[C@@H]5C)n3)[C@H]3CC(C)(C)OC[C@@]43C)cc2)CCN1C (single isomer, unassigned) [Example 312] has an IC50 of 10 to 100 nM.
Work on C[C@H]1CN(c2ccc(Nc3ncc4c(n3)N(c3cccc(N5C(=O)OC[C@@H]5C)n3)[C@H]3CC(C)(C)OC[C@@]43C)cc2)CCN1C (single isomer, unassigned) [Example 314] yielded an IC50 of 10 to 100 nM.
For CN[C@H]1CCN(c2ccc(Nc3ncc4c(n3)N(c3cccc(N5C(=O)OC[C@@H]5C)n3)[C@H]3CC(C)(C)OC[C@@]43C)cc2)C1 (single isomer, unassigned) [Example 316], the IC50 was 10 to 100 nM.
For CN[C@@H]1CCN(c2ccc(Nc3ncc4c(n3)N(c3cccc(N5C(=O)OC[C@@H]5C)n3)[C@H]3CC(C)(C)OC[C@@]43C)cc2)C1 (single isomer, unassigned) [Example 318], the IC50 was 10 to 100 nM.
CN[C@@H](Cc1ccc(Nc2ncc3c(n2)N(c2cccc(N4C(=O)OC[C@@H]4C)n2)[C@H]2CC(C)(C)OC[C@@]32C)cc1)C(=O)O (single isomer, unassigned) [Example 320] was tested, and the IC50 was 100 to 1000 nM.
Work on CN[C@H](Cc1ccc(Nc2ncc3c(n2)N(c2cccc(N4C(=O)OC[C@@H]4C)n2)[C@H]2CC(C)(C)OC[C@@]32C)cc1)C(=O)O (single isomer, unassigned) [Example 322] yielded an IC50 of 100 to 1000 nM.
Compound C[C@H]1COC(=O)N1c1cccc(N2c3nc(Nc4ccc(OC5CCNCC5)nc4)ncc3[C@]3(C)COC(C)(C)C[C@H]23)n1 (single isomer, unassigned) [Example 324] has an IC50 of 100 to 1000 nM.
C[C@H]1COC(=O)N1c1cccc(N2c3nc(Nc4ccc(O[C@@H]5CCNC5)cc4)ncc3[C@]3(C)COC(C)(C)C[C@H]23)n1 (single isomer, unassigned) [Example 326] was tested, and the IC50 was 10 to 100 nM.
In the case of C[C@H]1COC(=O)N1c1cccc(N2c3nc(Nc4ccc(O[C@H]5CCNC5)cc4)ncc3[C@]3(C)COC(C)(C)C[C@H]23)n1 (single isomer, unassigned) [Example 328], the IC50 is reported as 100 to 1000 nM.
Compound C[C@H]1COC(=O)N1c1cccc(N2c3nc(Nc4ccc(O[C@@H]5CCN(C)C5)cc4)ncc3[C@]3(C)COC(C)(C)C[C@H]23)n1 (single isomer, unassigned) [Example 330] has an IC50 of 10 to 100 nM.
With C[C@H]1COC(=O)N1c1cccc(N2c3nc(Nc4ccc(O[C@H]5CCN(C)C5)cc4)ncc3[C@]3(C)COC(C)(C)C[C@H]23)n1 (single isomer, unassigned) [Example 332] the IC50 was 10 to 100 nM.
For C[C@H]1COC(=O)N1c1cccc(N2c3nc(Nc4ccc(OC5CCN(C)CC5)nc4)ncc3[C@]3(C)COC(C)(C)C[C@H]23)n1 (single isomer, unassigned) [Example 334], the IC50 was 100 to 1000 nM.
Compound Cc1cc(Nc2ncc3c(n2)N(c2cccc(N4C(=O)OC[C@@H]4C)n2)[C@H]2CC(C)(C)OC[C@@]32C)ccc1O[C@@H]1CCNC1 (single isomer, unassigned) [Example 336] has an IC50 of 10 to 100 nM.
Cc1cc(Nc2ncc3c(n2)N(c2cccc(N4C(=O)OC[C@@H]4C)n2)[C@H]2CC(C)(C)OC[C@@]32C)ccc1O[C@H]1CCNC1 (single isomer, unassigned) [Example 338] showed an IC50 of 10 to 100 nM.
C[C@H]1COC(=O)N1c1cccc(N2c3nc(Nc4ccn(C)c(=O)c4)ncc3[C@]3(C)COC(C)(C)C[C@H]23)n1 (single isomer, unassigned) [Example 340] showed an IC50 of 100 to 1000 nM.
Work on C[C@H]1COC(=O)N1c1cccc(N2c3nc(Nc4ccc(OC5CNC5)nc4)ncc3[C@]3(C)COC(C)(C)C[C@H]23)n1 (single isomer, unassigned) [Example 342] yielded an IC50 of 100 to 1000 nM.
In the case of Cc1cc(Nc2ncc3c(n2)N(c2cccc(N4C(=O)OC[C@@H]4C)n2)[C@H]2CC(C)(C)OC[C@@]32C)ccc1O[C@H]1CCN(C)C1 (single isomer, unassigned) [Example 344], the IC50 is reported as 10 to 100 nM.
Work on Cc1cc(Nc2ncc3c(n2)N(c2cccc(N4C(=O)OC[C@@H]4C)n2)[C@H]2CC(C)(C)OC[C@@]32C)ccc1O[C@@H]1CCN(C)C1 (single isomer, unassigned) [Example 346] yielded an IC50 of 10 to 100 nM.
C[C@H]1COC(=O)N1c1cccc(N2c3nc(Nc4ccc([C@@]5(C)CCN(C)C5)cc4)ncc3[C@]3(C)COC(C)(C)C[C@H]23)n1 (single isomer, unassigned) [Example 348] gave an IC50 of 10 to 100 nM.
For C[C@H]1COC(=O)N1c1cccc(N2c3nc(Nc4ccc([C@]5(C)CCN(C)C5)cc4)ncc3[C@]3(C)COC(C)(C)C[C@H]23)n1 (single isomer, unassigned) [Example 350], the IC50 was 10 to 100 nM.
C[C@H]1COC(=O)N1c1cccc(N2c3nc(Nc4ccc(N5C[C@H]6C[C@@H](C5)N6C)cc4)ncc3[C@]3(C)COC(C)(C)C[C@H]23)n1 (single isomer, unassigned) [Example 353] was tested, and the IC50 was 10 to 100 nM.
In the case of C[C@H]1COC(=O)N1c1cccc(N2c3nc(Nc4ccc(N5CC6(CN(C)C6)C5)cc4)ncc3[C@]3(C)COC(C)(C)C[C@H]23)n1 (single isomer, unassigned) [Example 354], the IC50 is reported as 10 to 100 nM.
C[C@H]1COC(=O)N1c1cccc(N2c3nc(N)ncc3[C@@]3(C)COC(C)(C)C[C@@H]23)n1 (single isomer, unassigned) [Example 356] showed an IC50 of 10 to 100 nM.
Work on C[C@H]1COC(=O)N1c1cccc(N2c3nc(N)ncc3[C@]3(C)COC(C)(C)C[C@H]23)n1 (single isomer, unassigned) [Example 357] yielded an IC50 of 100 to 1000 nM.
CNCc1ccc(Nc2ncc3c(n2)N(c2cccc(N4C(=O)OC[C@@H]4C)n2)[C@H]2CC(C)(C)OC[C@@]32C)cc1 (single isomer, unassigned) [Example 359] showed an IC50 of 10 to 100 nM.
In the case of CC1(C)C[C@H]2N(c3cccc(N=S(C)(C)=O)n3)c3nc(Nc4ccc5cnnn5c4)ncc3[C@@]2(C)CO1 (single isomer, unassigned) [Example 362], the IC50 is reported as < 10 nM.
For CC1(C)C[C@H]2N(c3cccc(N=S(C)(C)=O)n3)c3nc(Nc4ncccc4F)ncc3[C@@]2(C)CO1 (single isomer, unassigned) [Example 368], the IC50 was 10 to 100 nM.
CC1(C)C[C@H]2N(c3cccc(N=S(C)(C)=O)n3)c3nc(Nc4ccc5cnoc5c4)ncc3[C@@]2(C)CO1 (single isomer, unassigned) [Example 381] was tested, and the IC50 was < 10 nM.
CC1(C)C[C@H]2N(c3cccc(N=S(C)(C)=O)n3)c3nc(Nc4cn5ccnc5cn4)ncc3[C@@]2(C)CO1 (single isomer, unassigned) [Example 382] gave an IC50 of 10 to 100 nM.
In the case of Cn1ccc2nc(Nc3ncc4c(n3)N(c3cccc(N=S(C)(C)=O)n3)[C@@H]3CC(C)(C)OC[C@]43C)cnc21 (single isomer, unassigned) [Example 383], the IC50 is reported as < 10 nM.
With CC1(C)C[C@H]2N(c3cccc(N=S(C)(C)=O)n3)c3nc(Nc4ccc5ncnn5c4)ncc3[C@@]2(C)CO1 (single isomer, unassigned) [Example 384] the IC50 was < 10 nM.
CC1(C)C[C@H]2N(c3cccc(N=S(C)(C)=O)n3)c3nc(Nc4ccn5ncnc5c4)ncc3[C@@]2(C)CO1 (single isomer, unassigned) [Example 385] was tested, and the IC50 was < 10 nM.
In the case of CC1(C)C[C@H]2N(c3cccc([C@@H]4CCCN4)n3)c3nc(Nc4ccn(C5CCOCC5)c(=O)c4)ncc3[C@@]2(C)CO1 (single isomer, unassigned) [Example 392], the IC50 is reported as < 10 nM.
CC(=O)Nc1ncc2c(n1)N(c1cccc(N=S(C)(C)=O)n1)[C@@H]1CC(C)(C)OC[C@]21C (single isomer, unassigned) [Example 398] gave an IC50 of 10 to 100 nM.

Same assay, conditions: class symbols; 1 nM Wee1 enzyme, 15 uM ATP, 4 hours at 25° C.
In the case of CC1(C)C[C@H]2N(c3cccc(N=S(C)(C)=O)n3)c3nc(NC(=O)c4ccccc4)ncc3[C@@]2(C)CO1 (single isomer, unassigned) [Example 404], the IC50 is reported as 10 to 100 nM.
CC1(C)C[C@H]2N(c3cccc(N=S(C)(C)=O)n3)c3nc(NC(=O)c4cccnc4)ncc3[C@@]2(C)CO1 (single isomer, unassigned) [Example 405] gave an IC50 of 10 to 100 nM.
Compound CC1(C)C[C@H]2N(c3cccc(N=S(C)(C)=O)n3)c3nc(NC(=O)c4ccccn4)ncc3[C@@]2(C)CO1 (single isomer, unassigned) [Example 407] has an IC50 of 10 to 100 nM.
CC1(C)C[C@H]2N(c3cccc(N=S(C)(C)=O)n3)c3nc(NC(=O)c4ccccc4F)ncc3[C@@]2(C)CO1 (single isomer, unassigned) [Example 409] gave an IC50 of 100 to 1000 nM.
For CC1(C)C[C@H]2N(c3cccc(N=S(C)(C)=O)n3)c3nc(NC(=O)C4(F)CC4)ncc3[C@@]2(C)CO1 (single isomer, unassigned) [Example 410], the IC50 was 10 to 100 nM.
